Laboratory results published in ChEMBL document CHEMBL4837262, “Development and Profiling of Inverse Agonist Tools for the Neuroprotective Transcription Factor Nurr1” (J Med Chem, 2021).
The source made the active and inactive calls. The rule behind the calls is not given here.

Columns and labels:
[1] = biological target: T1, Nuclear receptor subfamily 4 group A member 2 (Homo sapiens, UniProt P43354); assay: Inverse agonist activity at Gal4-fused human Nurr1 LBD expressed in HEK293T cells co-expressing firefly luciferase assessed as luciferase activity by hybrid reporter gene assay; format: cell-based
T1 sequence (P43354 whole entry, the tested form may be a part): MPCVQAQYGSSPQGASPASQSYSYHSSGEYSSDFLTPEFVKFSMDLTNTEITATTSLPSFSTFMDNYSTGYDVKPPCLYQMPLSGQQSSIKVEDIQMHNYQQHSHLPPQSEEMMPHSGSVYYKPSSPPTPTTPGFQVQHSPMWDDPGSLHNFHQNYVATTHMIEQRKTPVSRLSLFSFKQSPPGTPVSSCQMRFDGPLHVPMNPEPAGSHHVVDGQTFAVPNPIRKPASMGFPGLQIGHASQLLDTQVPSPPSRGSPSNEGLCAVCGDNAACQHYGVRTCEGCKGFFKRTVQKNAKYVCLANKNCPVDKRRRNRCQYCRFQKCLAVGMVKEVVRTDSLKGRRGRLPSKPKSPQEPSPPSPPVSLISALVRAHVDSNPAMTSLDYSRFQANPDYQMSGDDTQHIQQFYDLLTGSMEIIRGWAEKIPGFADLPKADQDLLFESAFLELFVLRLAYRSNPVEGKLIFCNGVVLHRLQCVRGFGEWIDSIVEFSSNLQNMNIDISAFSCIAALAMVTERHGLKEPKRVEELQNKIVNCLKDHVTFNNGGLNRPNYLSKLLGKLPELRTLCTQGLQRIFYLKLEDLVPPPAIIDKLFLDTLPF

[2] = biological target: T1, Nuclear receptor subfamily 4 group A member 2; assay: Agonist activity at Gal4-fused human Nurr1 LBD expressed in HEK293T cells co-expressing firefly luciferase assessed as luciferase activity by hybrid reporter gene assay; format: cell-based
[3] = biological target: T1, Nuclear receptor subfamily 4 group A member 2; assay: Agonist activity at Gal4-fused human Nurr1 LBD expressed in HEK293T cells co-expressing firefly luciferase assessed as fold increase in luciferase activity by hybrid reporter gene assay relative to control; format: cell-based; conditions: filed as agonist
[4] = biological target: T1, Nuclear receptor subfamily 4 group A member 2; assay: Agonist activity at Gal4-fused human Nurr1 LBD expressed in HEK293T cells co-expressing firefly luciferase assessed as luciferase activity in presence of 5-(Pyridin-3-yl)-1-methylindole-3-carboxylic Acid Methyl Ester by hybrid reporter gene assay; format: cell-based
[5] = biological target: T1, Nuclear receptor subfamily 4 group A member 2; assay: Inverse agonist activity at human Nurr1 LBD assessed as displacement of NCoR2 from Nurr1 after 2 hrs by HTRF assay
T98G [6] = assay: Cytotoxicity against human T98G cells assessed as reduction in cell viability at >30 uM after 24 hrs by WST-1 assay; format: cell-based
[7] = biological target: T1, Nuclear receptor subfamily 4 group A member 2; assay: Inverse agonist activity at Gal4-fused human Nurr1 monomer response element NBRE expressed in HEK293T cells co-expressing firefly luciferase assessed as luciferase activity by hybrid reporter gene assay; format: cell-based
[8] = biological target: T1, Nuclear receptor subfamily 4 group A member 2; assay: Inverse agonist activity at human Nurr1 LBD assessed as inhibition of Nurr1 homodimerization after 2 hrs by HTRF assay; conditions: filed as inverse agonist
[9] = biological target: T1, Nuclear receptor subfamily 4 group A member 2; assay: Inverse agonist activity at human Nurr1 LBD assessed as inhibition of SRC1-Nurr1 interaction after 2 hrs by HTRF assay
[10] = biological target: T1, Nuclear receptor subfamily 4 group A member 2; assay: Inverse agonist activity at human Nurr1 LBD assessed as inhibition of CBP1-Nurr1 interaction after 2 hrs by HTRF assay
[11] = biological target: T1, Nuclear receptor subfamily 4 group A member 2; assay: Inverse agonist activity at human Nurr1 LBD assessed as inhibition of NCoA6-Nurr1 interaction after 2 hrs by HTRF assay
[12] = biological target: T1, Nuclear receptor subfamily 4 group A member 2; assay: Inverse agonist activity at human Nurr1 LBD assessed as inhibition of heterodimerization of Nurr1 with RXRalpha after 2 hrs by HTRF assay
HEK-293T [13] = assay: Cytotoxicity against human HEK293T cells assessed as reduction in cell viability at >30 uM after 24 hrs by WST-1 assay; format: cell-based
[14] = biological target: T1, Nuclear receptor subfamily 4 group A member 2; assay: Inverse agonist activity at human Nurr1 LBD assessed as displacement of NCoR1 from Nurr1 after 2 hrs by HTRF assay
[15] = biological target: T1, Nuclear receptor subfamily 4 group A member 2; assay: Inverse agonist activity at Gal4-fused human Nurr1 LBD expressed in HEK293T cells co-expressing firefly luciferase assessed as luciferase activity in presence of AQ by hybrid reporter gene assay; format: cell-based
T98G [16] = assay: Cytotoxicity against human T98G cells assessed as reduction in cell viability upto 100 uM after 24 hrs by WST-1 assay; format: cell-based
HEK-293T [17] = assay: Cytotoxicity against human HEK293T cells assessed as reduction in cell viability upto 100 uM after 24 hrs by WST-1 assay; format: cell-based

SMILES	IC50 ([1]; read-out: IC50)	IC50 ([1]; hek293t)	further results
COC(=O)c1c[nH]c2cccc(Cl)c12	55 µM		
COC(=O)c1c[nH]c2ccc(C)cc12	20 µM		
CCNC(=O)c1cn(C)c2ccc(-c3ccccc3)cc12		Not Active	
O=Cc1c[nH]c2ccccc12 [3-FORMYLINDOLE]		Not Active	
COC(=O)c1c(C)[nH]c2ccccc12	53 µM		
COC(=O)c1c[nH]c2ccc(Cc3ccccc3)cc12		Not Active	
CC(=O)c1c[nH]c2ccccc12		Not Active	
COC(=O)c1c[nH]c2ccc(Cl)cc12	24 µM		
COC(=O)c1c[nH]c2cc(C)ccc12	57 µM		
COC(=O)c1c[nH]c2c(Cl)cccc12	19 µM		
COC(=O)c1c[nH]c2c(C)cccc12	35 µM		
CCOC(=O)c1c[nH]c2ccccc12		Not Active	
COC(=O)c1c[nH]c2ccc(OC)cc12	23 µM		
COC(=O)c1c[nH]c2c(OC)cccc12		Not Active	
CN(C)C(=O)c1cn(C)c2ccc(-c3ccccc3)cc12	> 30 µM		
CCC(=O)c1c[nH]c2ccccc12		Not Active	

SMILES	IC50 ([1]; read-out: IC50)	IC50 ([1]; hek293t)	further results
COC(=O)c1cn(-c2ccccc2)c2ccccc12			EC50 [2]: 81 µM; fold change (FC) [3]: 1.9
COC(=O)c1cn(C)c2c(Cl)cc(-c3cccnc3)cc12	11 µM		
COC(=O)c1cn(C)c2ccccc12	21 µM		
COC(=O)c1c(Cl)[nH]c2ccccc12	34 µM		
O=C(Oc1ccccc1)c1c[nH]c2ccccc12			EC50 [2]: 11 µM; fold change (FC) [3]: 1.93
CCn1cc(C(=O)OC)c2ccccc21	31 µM		
COC(=O)c1c[nH]c2cccc(C)c12		Not Active	
CCN(CC)Cc1cc(Nc2ccnc3cc(Cl)ccc23)ccc1O [AMODIAQUINE]			EC50 [2]: 41 µM; EC50 [4]: 82 µM
COC(=O)c1cn(C)c2ccc(-c3cccnc3)cc12	3.8 µM		IC50 [5]: 29 µM; Activity (T98G [6]): Toxic; IC50 [7]: 10 µM; Activity [8]: Dose-Dependent Effect; Activity [9]: inactive; Activity [10]: inactive; Activity [11]: inactive; Activity [12]: inactive; Activity (HEK-293T [13]): Toxic; IC50 [14]: 57 µM; IC50 [15]: 3.7 µM
CC(C)(C)OC(=O)c1c[nH]c2ccccc12		Not Active	
O=C(O)c1c[nH]c2ccccc12		Not Active	
COC(=O)c1c[nH]c2ccc(Br)cc12	15 µM		
COC(=O)c1cn(Cc2ccccc2)c2ccccc12		Not Active	
COC(=O)c1cn(C)c2ccc(-c3ccccc3)cc12			Activity (T98G [16]): Non-Toxic; Activity (HEK-293T [17]): Non-Toxic
COC(=O)c1c[nH]c2ccccc12	48 µM		
CNC(=O)c1cn(C)c2ccc(-c3ccccc3)cc12	14 µM		
